Measurements taken from ChEMBL document CHEMBL3414487, “Synthesis and biological activity of salinomycin conjugates with floxuridine” (Eur J Med Chem, 2015).

What was measured:
[1] = Antiproliferative activity against human HL60 cells assessed as growth inhibition after 72 hrs by MTT assay; assay type: functional, cell-based; conditions: HL-60, 72 h
[2] = system: Staphylococcus epidermidis; assay: Antimicrobial activity against methicillin-resistant Staphylococcus epidermidis 466/11 after 18 hrs by two-fold serial microdilution method; assay type: functional; conditions: 466/11, 18 h
[3] = Antiproliferative activity against human vincristine-resistant HL60/Vinc cells assessed as growth inhibition after 72 hrs by MTT assay; assay type: functional; conditions: Homo sapiens, HL60/vinc, 72 h
[4] = system: Staphylococcus epidermidis; assay: Antimicrobial activity against Staphylococcus epidermidis ATCC 12228 after 18 hrs by two-fold serial microdilution method; assay type: functional; conditions: ATCC 12228, 18 h
Staphylococcus aureus [5] = assay: Antimicrobial activity against Staphylococcus aureus […] 4163 after 18 hrs by two-fold serial microdilution method; assay type: functional
Staphylococcus aureus [6] = assay: Antimicrobial activity against Staphylococcus aureus ATCC 6538 after 18 hrs by two-fold serial microdilution method; assay type: functional; conditions: ATCC 6538, 18 h
[7] = system: Staphylococcus epidermidis; assay: Antimicrobial activity against methicillin-resistant Staphylococcus epidermidis 489/11 after 18 hrs by two-fold serial microdilution method; assay type: functional; conditions: 489/11, 18 h
Staphylococcus aureus [8] = assay: Antimicrobial activity against methicillin-resistant Staphylococcus aureus 573/12 after 18 hrs by two-fold serial microdilution method; assay type: functional; conditions: 573/12, 18 h
HL-60 [9] = assay: Selectivity index, ratio of IC50 for mouse BALB/3T3 cells to IC50 for human HL60 cells; assay type: functional
[10] = system: Staphylococcus epidermidis; assay: Antimicrobial activity against methicillin-resistant Staphylococcus epidermidis 488/11 after 18 hrs by two-fold serial microdilution method; assay type: functional; conditions: 488/11, 18 h
LoVo [11] = assay: Antiproliferative activity against human LoVo cells assessed as growth inhibition after 72 hrs by SRB method; assay type: functional, cell-based; conditions: Homo sapiens, LoVo, 72 h
Staphylococcus aureus [12] = assay: Antimicrobial activity against methicillin-resistant Staphylococcus aureus 522/12 after 18 hrs by two-fold serial microdilution method; assay type: functional; conditions: 522/12, 18 h
[13] = Antiproliferative activity against human doxorubicin-resistant LoVo/DX cells assessed as growth inhibition after 72 hrs by SRB method; assay type: functional, cell-based
Staphylococcus aureus [14] = assay: Antimicrobial activity against Staphylococcus aureus ATCC 25923 after 18 hrs by two-fold serial microdilution method; assay type: functional; conditions: ATCC 25923, 18 h
[15] = Selectivity index, ratio of IC50 for mouse BALB/3T3 cells to IC50 for human HL60/Vinc cells; assay type: functional
Staphylococcus aureus [16] = assay: Antimicrobial activity against methicillin-resistant Staphylococcus aureus 456/11 after 18 hrs by two-fold serial microdilution method; assay type: functional; conditions: 456/11, 18 h
[17] = Antiproliferative activity against human LS180 cells assessed as growth inhibition after 72 hrs by SRB method; assay type: functional, cell-based; conditions: Homo sapiens, LS180, 72 h
LoVo [18] = assay: Selectivity index, ratio of IC50 for mouse BALB/3T3 cells to IC50 for human LoVo cells; assay type: functional
LoVo [19] = assay: Resistance index, ratio of IC50 for human LoVo/DX cells to IC50 for human LoVo cells
[20] = system: Staphylococcus epidermidis; assay: Antimicrobial activity against methicillin-resistant Staphylococcus epidermidis 459/11 after 18 hrs by two-fold serial microdilution method; assay type: functional; conditions: 459/11, 18 h
[21] = Selectivity index, ratio of IC50 for mouse BALB/3T3 cells to IC50 for human LS180 cells; assay type: functional
[22] = system: Staphylococcus epidermidis; assay: Antimicrobial activity against methicillin-resistant Staphylococcus epidermidis 469/11 after 18 hrs by two-fold serial microdilution method; assay type: functional; conditions: 469/11, 18 h
Staphylococcus aureus [23] = assay: Antimicrobial activity against methicillin-resistant Staphylococcus aureus 462/11 after 18 hrs by two-fold serial microdilution method; assay type: functional; conditions: 462/11, 18 h
[24] = Selectivity index, ratio of IC50 for mouse BALB/3T3 cells to IC50 for human SW707 cells; assay type: functional
BALB/3T3 = assay: Antiproliferative activity against mouse BALB/3T3 cells assessed as growth inhibition after 72 hrs by SRB method; assay type: cell-based; conditions: BALB/3T3, 72 h
[25] = Selectivity index, ratio of IC50 for mouse BALB/3T3 cells to IC50 for human LoVo/DX cells; assay type: functional
Staphylococcus aureus [26] = assay: Antimicrobial activity against methicillin-resistant Staphylococcus aureus 572/12 after 18 hrs by two-fold serial microdilution method; assay type: functional; conditions: 572/12, 18 h
[27] = system: Staphylococcus epidermidis; assay: Antimicrobial activity against methicillin-resistant Staphylococcus epidermidis 468/11 after 18 hrs by two-fold serial microdilution method; assay type: functional; conditions: 468/11, 18 h
Staphylococcus aureus [28] = assay: Antimicrobial activity against methicillin-resistant Staphylococcus aureus 514/11 after 18 hrs by two-fold serial microdilution method; assay type: functional; conditions: 514/11, 18 h
[29] = system: Staphylococcus epidermidis; assay: Antimicrobial activity against Staphylococcus epidermidis ATCC 35984 after 18 hrs by two-fold serial microdilution method; assay type: functional; conditions: ATCC 35984, 18 h
[30] = system: Staphylococcus epidermidis; assay: Antimicrobial activity against methicillin-resistant Staphylococcus epidermidis 460/11 after 18 hrs by two-fold serial microdilution method; assay type: functional; conditions: 460/11, 18 h
Staphylococcus aureus [31] = assay: Antimicrobial activity against Staphylococcus aureus ATCC 29213 after 18 hrs by two-fold serial microdilution method; assay type: functional; conditions: ATCC 29213, 18 h
[32] = system: Staphylococcus epidermidis; assay: Antimicrobial activity against methicillin-resistant Staphylococcus epidermidis 467/11 after 18 hrs by two-fold serial microdilution method; assay type: functional; conditions: 467/11, 18 h
HT-29 [33] = assay: Antiproliferative activity against human HT-29 cells assessed as growth inhibition after 72 hrs by SRB method; assay type: functional, cell-based; conditions: Homo sapiens, HT-29, 72 h
Staphylococcus aureus [34] = assay: Antimicrobial activity against methicillin-resistant Staphylococcus aureus 586/12 after 18 hrs by two-fold serial microdilution method; assay type: functional; conditions: 586/12, 18 h
Staphylococcus aureus [35] = assay: Antimicrobial activity against methicillin-resistant Staphylococcus aureus 537/12 after 18 hrs by two-fold serial microdilution method; assay type: functional; conditions: 537/12, 18 h
Staphylococcus aureus [36] = assay: Antimicrobial activity against methicillin-resistant Staphylococcus aureus 452/11 after 18 hrs by two-fold serial microdilution method; assay type: functional; conditions: 452/11, 18 h
HL-60 [37] = assay: Resistance index, ratio of IC50 for human HL60/Vinc cells to IC50 for human HL60 cells
Staphylococcus aureus [38] = assay: Antimicrobial activity against methicillin-resistant Staphylococcus aureus 585/12 after 18 hrs by two-fold serial microdilution method; assay type: functional; conditions: 585/12, 18 h
[39] = Antiproliferative activity against human SW707 cells assessed as growth inhibition after 72 hrs by SRB method; assay type: functional, cell-based; conditions: Homo sapiens, SW707, 72 h
[40] = system: Staphylococcus epidermidis; assay: Antimicrobial activity against methicillin-resistant Staphylococcus epidermidis 461/11 after 18 hrs by two-fold serial microdilution method; assay type: functional; conditions: 461/11, 18 h
[41] = system: Staphylococcus epidermidis; assay: Antimicrobial activity against methicillin-resistant Staphylococcus epidermidis 470/11 after 18 hrs by two-fold serial microdilution method; assay type: functional; conditions: 470/11, 18 h
HT-29 [42] = assay: Selectivity index, ratio of IC50 for mouse BALB/3T3 cells to IC50 for human HT-29 cells; assay type: functional

O=c1[nH]c(=O)n([C@H]2C[C@H](O)[C@@H](CO)O2)cc1F [FLOXURIDINE]
IC50 [1]: 0.24 µM
MIC [2]: ≤ 0.016 µM
IC50 [3]: 17.4 µM
MIC [4]: ≤ 0.016 µM
MIC (Staphylococcus aureus [5]): ≤ 0.016 µM
MIC (Staphylococcus aureus [6]): ≤ 0.016 µM
MIC [7]: ≤ 0.016 µM
MIC (Staphylococcus aureus [8]): ≤ 0.016 µM
Selectivity Index (HL-60 [9]): 99.58
MIC [10]: ≤ 0.016 µM
IC50 (LoVo [11]): 19.1 µM
MIC (Staphylococcus aureus [12]): ≤ 0.016 µM
IC50 [13]: 16.7 µM
MIC (Staphylococcus aureus [14]): ≤ 0.016 µM
Selectivity Index [15]: 1.37
MIC (Staphylococcus aureus [16]): ≤ 0.016 µM
IC50 [17]: 140 µM
Selectivity Index (LoVo [18]): 1.25
Ratio IC50 (LoVo [19]): 0.87
MIC [20]: ≤ 0.016 µM
Selectivity Index [21]: 0.17
MIC [22]: ≤ 0.016 µM
MIC (Staphylococcus aureus [23]): ≤ 0.016 µM
Selectivity Index [24]: 1
IC50 (BALB/3T3): 23.9 µM
Selectivity Index [25]: 1.43
MIC (Staphylococcus aureus [26]): ≤ 0.016 µM
MIC [27]: ≤ 0.016 µM
MIC (Staphylococcus aureus [28]): ≤ 0.016 µM
MIC [29]: ≤ 0.016 µM
MIC [30]: ≤ 0.016 µM
MIC (Staphylococcus aureus [31]): ≤ 0.016 µM
MIC [32]: ≤ 0.016 µM
IC50 (HT-29 [33]): 115 µM
MIC (Staphylococcus aureus [34]): ≤ 0.016 µM
MIC (Staphylococcus aureus [35]): ≤ 0.016 µM
MIC (Staphylococcus aureus [36]): ≤ 0.016 µM
Ratio IC50 (HL-60 [37]): 72.5
MIC (Staphylococcus aureus [38]): ≤ 0.016 µM
IC50 [39]: 23.9 µM
MIC [40]: ≤ 0.016 µM
MIC [41]: ≤ 0.016 µM
Selectivity Index (HT-29 [42]): 0.21
